According to US7569537B2, “Peptide antagonists for inhibiting heat shock protein (Hsp 16.3) of Mycobacterium tuberculosis” (priority 2004, dated 2009):
No end group written: not given here.

Legend:
Hsp16.3 [1] = biological target: T1, Hsp16.3 (Mycobacterium tuberculosis, UniProt P9WMK1); experiment: ADH heat aggregation assay for inhibition of Hsp16.3 chaperon activity; type: biochemical
Experimental: FIG. 2. […] Aggregation assays were performed by heating 5 μM Alcohol dehydrogenase (ADH) to 50° C. directly in a spectrophotometer using a thermostated cuvette holder in a total reaction volume of 500 μl. Optical density was monitored at 360 nm for 1200 seconds and readings were taken at every 100 seconds interval. […] Then the same experiment was performed in the presence of increasing concentrations of the Hsp16.3 binding peptide Seq IDs 10. Aggregation of ADH in the absence of Hsp 16.3 (black triangle). Aggregation in the presence of Hsp 16.3 (black circle). The same experiment when performed in the presence of increasing concentrations of the Hsp 16.3 binding peptide (Seq ID 10) 25 μM (white square), 50 μM (black square), 100 μM (white triangle). Only peptide control (ADH+100 μM peptide) (white circle).
The binding of a peptide need not necessarily result in inhibition. Inhibition will happen only if binding leads to significant changes in the active site. […] A part of the invention is the development of a peptide inhibition assay for Hsp16.3. The method is based on aggregation based assays. The standard assay used for assaying the activity of alpha-crystallin like proteins is to study the protection it confers against heat induced aggregation of proteins, the aggregation activity being measured spectrophotometrically. […] Aggregation of 5 μM ADH at 50° C. can be measured as an apparent optical density at 360 nm using a spectrophotometer equipped with a thermostated cuvette holder in a total reaction volume of 500 μl. The chaperon activity of Hsp16.3 can be determined by mixing ADH with Hsp16.3 at a molar ratio of 5:4 which is equivalent to a ratio of about 12:1 between ADH and Hsp16.3 assuming a nonameric structure of Hsp16.3 as the functional unit (Chang et al., 1996) and aggregation rates again determined spectrophotometrically. […]
A part of the invention is the peptide inhibition assay for Hsp16.3 comprising of heat treating ADH alone, ADH+Hsp16.3 and ADH+Hsp16.3+25, 50 and 100 μM peptide. […] Aggregation of 5 μM ADH at 50° C. was measured as an apparent optical density at 360 nm using Hitachi spectrophotometer equipped with a thermostated cuvette holder in a total reaction volume of 500 μl. The chaperon activity of Hsp16.3 was determined by mixing ADH with Hsp16.3 at a molar ratio of 5:4 and aggregation rates were again determined spectrophotometrically. […]
Aggregation assays were performed by heating 5 μM Alcohol dehydrogenase (ADH) to 50° C. directly in a spectrophotometer using a thermostated cuvette holder in a total reaction volume of 500 μl. Absorbance was monitored at 360 nm (A360) for 1200 seconds and readings were taken at every 100 seconds interval. […] The increase in absorbance indicates aggregation of ADH. […]

human alphaB-crystallin = biological target: T2, human alphaB-crystallin (Homo sapiens, UniProt P02511); experiment: ADH heat aggregation assay with alphaB-crystallin instead of Hsp16.3; type: biochemical; details: 25, 50 and 100 μM peptide, ADH:alphaB-crystallin 5:4
T2 construct: made in house
T2 sequence (P02511 1-175): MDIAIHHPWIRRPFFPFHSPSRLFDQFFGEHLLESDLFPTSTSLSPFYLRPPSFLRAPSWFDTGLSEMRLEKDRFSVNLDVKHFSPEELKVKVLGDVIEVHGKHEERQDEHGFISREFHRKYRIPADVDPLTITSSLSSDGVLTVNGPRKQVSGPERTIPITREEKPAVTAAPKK
Experimental: FIG. 3. An example to show the specificity of the inhibitory peptides for Hsp16.3 and not for alphaB-crystallin—a component of human eye lens. A similar assay as described in FIG. 2 was performed using alphaB-crystalline instead of Hsp16.3. The molar ratio between ADH and alphaB-crystallin was maintained 5:4 as in the case of Hsp 16.3. Aggregation in the absence of alphaB-crystallin (black triangle). Aggregation in the presence of alphaB-crystalline (black circle). The same experiment was performed in the presence of increasing concentrations of the Hsp16.3 binding peptide (Seq ID 10) 25 μM (white square), 50 μM (black square), 100 μM (white triangle). Only peptide control (ADH+100 μM peptide) (white circle).
ADH upon being heated to 50° C. aggregates. This aggregation can be completely stopped when Hsp16.3 is added in such a way so as to obtain a molar ratio of ADH to Hsp 16.3 monomer of about 5:4. Incorporation of peptide at a concentration of 100 μM i.e. about 25 fold molar excess leads to significant inhibition of chaperon activity. […] Since it has been shown that Hsp16.3 has functional similarity with human alphaB-crystallin, an eye lens protein (Valdez et al., 2002), therefore the effect of these peptides on human alphaB-crystallin was examined. […] The vector used for expression of this protein was originally generated by Dr. W. C. […]

Hsp16.3 [2] = biological target: T1, Hsp16.3; experiment: NMR (TOCSY) amide proton chemical shifts of peptide free and with Hsp16.3; type: binding; details: 0.1 mM protein, 2 mM peptide, pH 7.0, 4 °C
Experimental: FIG. 5. Comparison of chemical shifts of amide protons of free peptide (Seq ID 10) (a) and peptide with Hsp16.3 protein (b). Resonance assignments are indicated with a one-letter amino acid code. All NMR spectra were taken in a Bruker DRX-500 spectrometer equipped with a Z-field gradient probe. All measurements were done in high precision 5-mm NMR tubes in 20 mM sodium phosphate buffer, pH 7.0, containing 250 mM NaCl in 90% H2O and 10% D2O at 4° C. TOCSY spectra were measured using standard pulse sequences in the Bruker pulse library using WATERGATE water suppression method. Standard Bruker software (Xwin-NMR version 1.3) was used to acquire and process the NMR data. The NMR samples were adjusted to a protein concentration of 0.1 mM and a 20-fold ligand excess (2 mM) over binding sites was used throughout the studies.
An important aspect of inhibitor development procedures is to understand the nature of interactions between the inhibitor and its target. […] As a part of this disclosure it is shown that histidine residues in one of the two peptide inhibitors namely Seq ID 10 interact with Hsp16.3 as determined by NMR.
All NMR spectra were taken in a Bruker DRX-500 NMR spectrometer equipped with a Z-field gradient probe. […] TOCSY spectra were measured using standard pulse sequences in the Bruker pulse library using WATERGATE water suppression method. […]

Hsp16.3 [3] = biological target: T1, Hsp16.3; details: reverse phage ELISA, A405, 30 μg/well Hsp16.3 or BSA

T1 sequence (P9WMK1 whole entry, looked up): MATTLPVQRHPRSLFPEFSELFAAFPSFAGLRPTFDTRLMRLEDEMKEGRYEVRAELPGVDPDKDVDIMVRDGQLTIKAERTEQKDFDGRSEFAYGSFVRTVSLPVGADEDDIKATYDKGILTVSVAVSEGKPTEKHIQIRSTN

Row | Substance | IC50 (Hsp16.3 [1]) [µM] | binding of phage clone to Hsp16.3 compared to non-specific control BSA (background binding) (Hsp16.3 [3]) | further results
1 | H-KMHATNHGGGS-NH2 [Seq ID 10] | ~50 |  | inhibition of chaperon activity of Hsp16.3 (in words) (Hsp16.3 [1]; 25, 50 and 100 μM peptide): dose dependent inhibition; effect of peptide alone on aggregation of ADH (control without Hsp16.3) (Hsp16.3 [1]; ADH + 100 μM peptide, no Hsp16.3): does not influence the aggregation of ADH; inhibition of chaperon activity of alphaB-crystallin (in words) (human alphaB-crystallin): no inhibition; chemical shift change of peptide amide protons on addition of Hsp16.3 (Hsp16.3 [2]): significant chemical shift occured in both histidines
2 | H-YPHHFKHRHIPIGGGS-NH2 [Seq ID 22] | ~50 |  | 
3 | KMHATNH [Seq ID 9] |  | about three-fold | 
4 | YPHHFKHRHIPI [Seq ID 21] |  | about three-fold | 
